Source: patent US9340478B2, “Cooling agent and TRPM8 activator” (Kao Corporation, priority 2011, dated 2016)

These molecules were tested against T1, human TRPM8 (Homo sapiens, UniProt Q7Z2W7) (assay: TRPM8 activating action, fluorescent calcium imaging in HEK293 cell line stably expressing human TRPM8). Settings: HEK293 cells expressing human TRPM8; Fluo4 calcium imaging at 32° C.; 1 nM to 100 μM; Hill's equation fit.
T1 construct: A full-length human TRPM8 gene was amplified from human prostatic tissue total RNA; expressed in transfected cells; host or cells: HEK293
Type: cell-based
Method: The EC50 value in connection with the TRPM8 activating action of a test sample was measured according to the following procedure.
(1) Production of Cell Line Stably Expressing Human TRPM8
In order to produce a HEK293 cell line stably expressing human TRPM8, cloning of human TRPM8 gene was carried out. A full-length human TRPM8 gene was amplified from human prostatic tissue total RNA (manufactured by Cosmobio Co., Ltd.) using an RT-PCR method.
The PCR product thus obtained was cloned into an entry vector pENTR-D/TOPO (manufactured by Invitrogen, Inc.), and then was sub-cloned into pCDNA3.2-V5/DEST (manufactured by Invitrogen, Inc.), The vector was transduced into HEK293 cells by means of LIPOFECTAMINE 2000 (manufactured by Invitrogen, Inc.). The transduced cells were proliferated in DMEM medium containing 450 μg/mL of G-418 (Promega Corp.) and screened.
Measurement of the activity of TRPM8 transduced into HEK293 cells was carried out by a fluorescent calcium imaging method.
First, the cultured TRPM8 expressing cells were seeded (30,000 cells/well) in a 96-well plate coated with poly-D-lysine (manufactured by BD Biosciences Co.), the cells were incubated overnight at 37° C., and then the culture fluid was removed. Fluo4-AM liquid (manufactured by Dojindo Molecular Technologies, Inc.; CALCIUM KIT II) was added thereto, and the cells were incubated for 30 to 60 minutes at 37° C. Thereafter, the 96-well plate was mounted on a fluorescence plate reader (FDSS3000; manufactured by Hamamatsu Photonics K.K.), and while the temperature inside the apparatus chamber was maintained at 32° C., a fluorescent image made by Fluo4 when excited at an excitation wavelength of 480 nm, was captured at a detection wavelength of 520 nm using a CCD camera.
Measurement was carried out at every one second for 4 minutes in total. 15 seconds after the initiation of measurement, a test sample (prepared by dissolving each of the compounds indicated in the following Table 1 in ethanol) was added through a dispenser equipped in FDSS3000, and the activity of TRPM8 was evaluated based on the change in fluorescence intensity.
(3) Evaluation of TRPM8 Activation
For the TRPM8 activity, the intrinsic fluorescence was excluded using the following formula, so as to eliminate the influence of intrinsic fluorescence caused by the test sample. Fluorescence intensity excluding intrinsic fluorescence(Fsub)=(Fluorescence intensity of TRPM8 expressing cells at each time point)−{(fluorescence intensity of HEK293 cells at each time point)−(fluorescence intensity of HEK293 cells at the time of measurement initiation)}
Furthermore, the TRPM8 activating action induced by each sample was evaluated using the peak of the fluorescence intensity ratio after the addition of the test sample. The fluorescence intensity ratio was calculated using the following formula. Fluorescence intensity ratio=Fsub at each time point/at the time of measurement initiation
The evaluation was carried out using two wells per each treated group, and the average value was used.
The TRPM8 activating action of each test sample was evaluated at a final concentration in the range of 1 nM to 100 μM, and a dose dependent curve approximating Hill's equation by the least square method was determined.

T1 sequence (Q7Z2W7 whole entry): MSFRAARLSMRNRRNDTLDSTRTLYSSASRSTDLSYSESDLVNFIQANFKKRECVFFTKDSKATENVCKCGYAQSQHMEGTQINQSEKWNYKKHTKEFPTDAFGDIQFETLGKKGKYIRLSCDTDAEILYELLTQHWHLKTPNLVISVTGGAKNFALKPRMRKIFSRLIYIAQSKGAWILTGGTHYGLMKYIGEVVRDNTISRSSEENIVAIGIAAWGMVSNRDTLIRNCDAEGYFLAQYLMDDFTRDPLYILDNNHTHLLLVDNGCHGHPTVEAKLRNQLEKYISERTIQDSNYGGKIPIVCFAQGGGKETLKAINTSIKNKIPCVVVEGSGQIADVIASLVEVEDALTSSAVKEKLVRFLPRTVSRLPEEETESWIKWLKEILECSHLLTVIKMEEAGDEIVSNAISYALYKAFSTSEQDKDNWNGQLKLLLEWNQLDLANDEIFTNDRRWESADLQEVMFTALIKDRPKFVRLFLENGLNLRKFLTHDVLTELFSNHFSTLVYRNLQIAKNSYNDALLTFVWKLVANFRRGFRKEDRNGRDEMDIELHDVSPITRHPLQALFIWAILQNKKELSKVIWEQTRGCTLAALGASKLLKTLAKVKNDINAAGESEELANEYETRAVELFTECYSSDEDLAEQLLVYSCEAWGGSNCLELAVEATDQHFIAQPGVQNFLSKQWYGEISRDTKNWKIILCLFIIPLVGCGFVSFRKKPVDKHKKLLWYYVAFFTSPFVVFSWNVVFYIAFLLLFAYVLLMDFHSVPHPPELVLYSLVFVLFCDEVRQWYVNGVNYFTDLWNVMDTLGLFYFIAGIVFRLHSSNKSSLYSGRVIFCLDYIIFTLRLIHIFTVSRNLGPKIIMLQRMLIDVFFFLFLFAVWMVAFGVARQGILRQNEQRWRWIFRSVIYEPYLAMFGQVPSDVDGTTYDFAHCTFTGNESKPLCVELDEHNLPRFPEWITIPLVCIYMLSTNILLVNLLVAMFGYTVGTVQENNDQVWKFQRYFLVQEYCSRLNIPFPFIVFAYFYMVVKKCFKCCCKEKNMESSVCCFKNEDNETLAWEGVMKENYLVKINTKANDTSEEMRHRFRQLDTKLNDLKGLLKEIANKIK

Compared with C=CCc1cc(OC)c(OC(C)C(OCC)c2ccc(O)c(OC)c2)c(OC)c1 (single isomer, unassigned) [Threo-form (2), threo-Δ8′-7-ethoxy-4-hydroxy-3,3′,5′-trimethoxy-8-O-4′-neolignan], C=CCc1cc(OC)c(O[C@@H](C)[C@@H](OCC)c2ccc(O)c(OC)c2)c(OC)c1 [7S8S-form (2b), (7S,8S)-Δ8′-7-ethoxy-4-hydroxy-3,3′,5′-trimethoxy-8-O-4′-neolignan] is 2.3-fold lower in EC50: 199 nM for the first, 87 nM for the second. The second is the more potent here.

C=CCc1cc(OC)c(O[C@@H](C)[C@H](OC(C)=O)c2ccc(O)c(OC)c2)c(OC)c1 (relative stereo) [Erythro-form (23), erythro-Δ8′-7-acetyl-4-hydroxy-3,3′,5′-trimethoxy-8-O-4′-neolignan] and C=CCc1cc(OC)c(OC(C)C(OC)c2ccc(O)c(OC)c2)c(OC)c1 (mixture of isomers) [Mixture (18), Δ8′-4-hydroxy-3,3′,5′,7-tetramethoxy-8-O-4′-neolignan] are within 1.5-fold of each other in EC50: 2600 nM for the first, 2410 nM for the second.

First: C=CCc1ccc(OC(C)Cc2ccc(O)c(OC)c2)c(OC)c1 (centres unmarked) [Mixture (34), Δ8′-4-Hydroxy-3,3′-dimethoxy-8-O-4′-neolignan]
Second: C=CCc1cc(OC)c(O[C@H](C)[C@@H](OCC)c2ccc(O)c(OC)c2)c(OC)c1 [7S8R-form (1b), (7S,8R)-Δ8′-7-ethoxy-4-hydroxy-3,3′,5′-trimethoxy-8-O-4′-neolignan]
The EC50 of the first is 6-fold higher: 5850 nM for the first, 981 nM for the second. The second is the more potent here.

First: C=CCc1cc(OC)c(O[C@@H](C)[C@H](OCCCC)c2ccc(O)c(OC)c2)c(OC)c1 (relative stereo) [Erythro-form (19), Erythro-Δ8′-7-butoxy-4-hydroxy-3,3′,5′-trimethoxy-8-O-4′-neolignan]
Second: C=CCc1cc(OC)c(O[C@H](C)[C@H](OCCCC)c2ccc(O)c(OC)c2)c(OC)c1 (relative stereo) [Threo-form (20), Threo-Δ8′-7-butoxy-4-hydroxy-3,3′,5′-trimethoxy-8-O-4′-neolignan]
The EC50 of the first is 14-fold higher: 581 nM for the first, 43 nM for the second. The second is the more potent here.

First: C=CCc1cc(OC)c(O[C@@H](C)[C@H](OCC)c2ccc(O)c(OC)c2)c(OC)c1 [7R8S-form (1a), (7R,8S)-Δ8′-7-ethoxy-4-hydroxy-3,3′,5-trimethoxy-8-O-4′-neolignan]
Second: C=CCc1cc(OC)c(OC(C)C(OCC)c2ccc(O)c(OC)c2)c(OC)c1 (centres unmarked) [Mixture (15), Δ8′-7-ethoxy-4-hydroxy-3,3′,5′-trimethoxy-8-O-4′-neolignan]
The EC50 of the first is 4-fold higher: 1230 nM for the first, 309 nM for the second.

Compared with C/C=C/c1ccc(OC(C)C(OCC)c2ccc(O)c(OC)c2)c(OC)c1 (centres unmarked) [Mixture (36), Δ8′-7-ethoxy-4-hydroxy-3,3′-dimethoxy-1′-propenyl-8-O-4′-neolignan], CCOC(c1ccc(O)c(OC)c1)C(C)Oc1ccccc1OC (centres unmarked) [Mixture (38), 4-[1-ethoxy-2-(2-methoxyphenoxy)propyl]-2-methoxyphenol] is 4.6-fold higher in EC50: 12200 nM for the first, 56200 nM for the second.

Going from C=CCc1cc(OC)c(OC(C)C(OCC)c2ccc(O)c(OC)c2)c(OC)c1 (single isomer, unassigned) [Erythro-form (1), erythro-Δ8′-7-ethoxy-4-hydroxy-3,3′,5′-trimethoxy-8-O-4′-neolignan] to C=CCc1cc(OC)c(O[C@H](C)[C@H](OCC)c2ccc(O)c(OC)c2)c(OC)c1 [7R8R-form (2a), (7R,8R)-Δ8′-7-ethoxy-4-hydroxy-3,3′,5′-trimethoxy-8-O-4′-neolignan], the EC50 falls from 1570 nM to 610 nM (2.6-fold).

C=CCc1cc(OC)c(OC(C)C(OCCCCCCCCCC)c2ccc(O)c(OC)c2)c(OC)c1 (centres unmarked) [Mixture (28), Δ8′-7-Decoxy-4-hydroxy-3,3′,5′-trimethoxy-8-O-4′-neolignan] and C=CCc1cc(OC)c(OC(C)C(OCCCCCCCC)c2ccc(O)c(OC)c2)c(OC)c1 (centres unmarked) [Mixture (27), Δ8′-7-Octoxy-4-hydroxy-3,3′,5′-trimethoxy-8-O-4′-neolignan] are within 1.5-fold of each other in EC50: 61 nM for the first, 88 nM for the second.

First: C=CCc1cc(OC)c(OC(C)C(OC2CCCCC2)c2ccc(O)c(OC)c2)c(OC)c1 (centres unmarked) [Mixture (29), Δ8′-7-Cyclohexoxy-4-hydroxy-3,3′,5′-trimethoxy-8-O-4′-neolignan]
Second: C=CCc1cc(OC)c(OC(C)C(OC(C)C)c2ccc(O)c(OC)c2)c(OC)c1 (centres unmarked) [Mixture (24), Δ8′-7-isopropoxy-4-hydroxy-3,3′,5′-trimethoxy-8-O-4′-neolignan]
The EC50 of the first is 1.7-fold lower: 45 nM for the first, 75 nM for the second.

Compared with C=CCc1cc(OC)c(OC(C)C(OCCOCCCC)c2ccc(O)c(OC)c2)c(OC)c1 (centres unmarked) [Mixture (32), Δ8′-7-Oxybutoxyethyl-4-hydroxy-3,3′,5′-trimethoxy-8-O-4′-neolignan], C=CCc1cc(OC)c(OC(C)C(OCCCCCC)c2ccc(O)c(OC)c2)c(OC)c1 (centres unmarked) [Mixture (26), Δ8′-7-Hexoxy-4-hydroxy-3,3′,5′-trimethoxy-8-O-4′-neolignan] is 1.7-fold higher in EC50: 131 nM for the first, 218 nM for the second.

Going from C=CCc1cc(OC)c(OC(C)C(OCC(C)C)c2ccc(O)c(OC)c2)c(OC)c1 (centres unmarked) [Mixture (25), Δ8′-7-Isobutoxy-4-hydroxy-3,3′,5′-trimethoxy-8-O-4′-neolignan] to C=CCc1cc(OC)c(OC(C)C(OC(C)(C)C)c2ccc(O)c(OC)c2)c(OC)c1 (centres unmarked) [Mixture (31), Δ8′-7-t-Butoxy-4-hydroxy-3,3′,5′-trimethoxy-8-O-4′-neolignan], the EC50 falls from 113 nM to 40 nM (2.8-fold).

C=CCc1cc(OC)c(OC(C)C(OCc2ccccc2)c2ccc(O)c(OC)c2)c(OC)c1 (centres unmarked) [Mixture (30), Δ8′-7-Benzyloxy-4-hydroxy-3,3′,5′-trimethoxy-8-O-4′-neolignan] showed an EC50 of 144 nM.
